From patent US10221163B2 (priority 2015, dated 2019)
pIC50: −log10 of the molar value. Like-named read-outs stand apart in the source and are kept apart here.

Experiments:
[1] = system: Escherichia coli expressing NDM-1 (CLB30005, CLB30016); assay type: cell-based; settings: with imipenem 1 μg/ml; for Escherichia coli MITC95: NDM-1 strain
Method in brief: (§1)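 Clinical isolates (E. coli NDM-1, S. marcescens IMP-1, K. pneumoniae VIM-1) were diluted 1:100 from saline suspension into 1.1×CAMHB and exposed to test compound with imipenem at 1 μg/ml. Plates were incubated at 35° C for 22 hours to 24 hours, and growth was read by absorbance.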

[2] = system: Serratia marcescens expressing IMP-1 (CL5741); assay type: cell-based; settings: for Serratia marcescens MITC95: IMP-1 strain CL5741, with imipenem 1 μg/ml; for Serratia marcescens expressing IMP-1 (CL5741) MITC95: with imipenem 1 μg/ml
Method in brief: as §1

[3] = system: Klebsiella pneumoniae expressing VIM-1 (IHMA599644); assay type: cell-based; settings: for Klebsiella pneumoniae MITC95: VIM-1 strain IHMA599644, with imipenem 1 μg/ml; for Klebsiella pneumoniae expressing VIM-1 (IHMA599644) MITC95: with imipenem 1 μg/ml
Method in brief: as §1

VIM-1 = VIM-1 (Pseudomonas aeruginosa (strain ATCC 15692 / DSM 22644 / CIP 104116 / JCM 14847 / LMG 12228 / 1C / PRS 101 / PAO1), UniProt A0A0F7KYQ8); assay: biochemical; settings: CCF2-FA substrate, 30 pM enzyme, 2 hours at 25° C.
Method in brief: (§2)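 Two-hour, 25° C incubation of enzyme with inhibitor and CCF2-FA (7-hydroxycoumarin–cephalosporin–fluorescein). Fluorescence read-out; IC50 via 4-parameter fit.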

[4] = system: Pseudomonas aeruginosa efflux+ (MB9798), IMP-1; assay type: cell-based; design: Concentration of metallo-β-lactamase inhibitor which restores susceptibility of efflux + (MB9798) strain to imipenem: unit not given here; settings: C, D serine β-lactamase inhibitor closely related to relebactam; for Concentration of metallo-β-lactamase inhibitor which restores susceptibility of efflux + (MB9798) strain to imipenem: imipenem at 2 μg/mL, in the presence of a class A; for P. aeruginosa expressing IMP-1, efflux + (MB9798) MITC95: concentration restoring susceptibility to imipenem at 2 μg/mL in the presence of a class A
Method in brief: (§3)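 P. aeruginosa PAO1-derived IMP-1 strains, efflux+ MB9798 and efflux− MB9799, tested by standard microbroth MIC with imipenem and/or ceftazidime fixed, usually at CLSI breakpoint, plus fixed class A/C β-lactamase inhibitor against AmpC. Inhibitor titrated; concentration restoring susceptibility recorded; MB9798/MB9799 fold difference indicates efflux.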

NDM-1 = NDM-1 (Klebsiella pneumoniae, UniProt C7C422); assay: biochemical; assay type: biochemical; settings: fluorescence assay, CCF2-FA substrate, 1 pM enzyme, 2 hours at 25° C.; read-out: NDM-1 IC50
NDM-1, sequence (C7C422 whole entry, looked up, species assumed): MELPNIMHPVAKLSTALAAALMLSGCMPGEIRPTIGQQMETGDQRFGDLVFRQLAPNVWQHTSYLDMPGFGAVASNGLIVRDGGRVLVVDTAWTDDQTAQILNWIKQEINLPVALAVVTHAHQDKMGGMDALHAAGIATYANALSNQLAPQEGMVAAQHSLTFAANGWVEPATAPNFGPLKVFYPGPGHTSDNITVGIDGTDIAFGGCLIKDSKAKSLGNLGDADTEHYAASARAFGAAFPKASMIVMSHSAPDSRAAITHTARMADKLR
Method in brief: as §2

IMP-1 = IMP-1 (Serratia marcescens, UniProt P52699); assay: biochemical; assay type: biochemical; settings: fluorescence assay, CCF2-FA substrate, 2 pM enzyme, 2 hours at 25° C.; read-out: IMP-1 IC50
IMP-1, sequence (P52699 whole entry, looked up, species assumed): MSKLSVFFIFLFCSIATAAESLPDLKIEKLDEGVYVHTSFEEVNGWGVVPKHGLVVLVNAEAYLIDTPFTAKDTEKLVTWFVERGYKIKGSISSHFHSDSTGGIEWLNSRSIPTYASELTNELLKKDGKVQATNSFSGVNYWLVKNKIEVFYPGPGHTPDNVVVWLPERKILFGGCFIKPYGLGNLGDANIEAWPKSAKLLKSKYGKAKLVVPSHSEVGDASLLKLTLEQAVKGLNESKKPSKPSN
Method in brief: as §2

[5] = system: Pseudomonas aeruginosa MB9798 vs MB9799
Method in brief: as §3

[6] = system: Pseudomonas aeruginosa efflux− (MB9799), IMP-1; assay type: cell-based; settings: C, D serine β-lactamase inhibitor closely related to relebactam; for Concentration of metallo-β-lactamase inhibitor which restores susceptibility of efflux − (MB9799) strain to imipenem: imipenem at 2 μg/mL, in the presence of a class A; for P. aeruginosa expressing IMP-1, efflux − (MB9799) MITC95: concentration restoring susceptibility to imipenem at 2 μg/mL in the presence of a class A
Method in brief: as §3

[7] = fold difference between efflux+ (MB9798) and efflux− (MB9799) strains, imipenem at 2 μg/mL
[8] = fluorescence assay, read-out: VIM-1 IC50
[9] = ratio MITC95 PA_9798/MITC95 PA_9799
[10] = 95% inhibition of bacterial growth

| SMILES | Escherichia coli MITC95 ([1]; 95% inhibition of growth) | Serratia marcescens MITC95 ([2]; 95% inhibition of growth) | Klebsiella pneumoniae MITC95 ([3]; 95% inhibition of growth) | pIC50 (VIM-1; VIM-1 IC50, fluorescence assay) | Concentration of metallo-β-lactamase inhibitor which restores susceptibility of efflux + (MB9798) strain to imipenem [4] | pIC50 (NDM-1) | pIC50 (IMP-1) | Efflux ratio [5, 7] | Concentration of metallo-β-lactamase inhibitor which restores susceptibility of efflux − (MB9799) strain to imipenem [6] | pIC50 (VIM-1; [8]) | P. aeruginosa expressing IMP-1, efflux + (MB9798) MITC95 [4] | Efflux ratio [5, 9] | P. aeruginosa expressing IMP-1, efflux − (MB9799) MITC95 [6] | Escherichia coli expressing NDM-1 (CLB30016) MITC95 [1, 10] | Serratia marcescens expressing IMP-1 (CL5741) MITC95 [2, 10] | Klebsiella pneumoniae expressing VIM-1 (IHMA599644) MITC95 [3, 10] | Escherichia coli MITC95 [1, 10] | Serratia marcescens MITC95 [2, 10] | Klebsiella pneumoniae MITC95 [3, 10] |
| --- | --- | --- | --- | --- | --- | --- | --- | --- | --- | --- | --- | --- | --- | --- | --- | --- | --- | --- | --- |
| NC[C@@H](O)CNS(=O)(=O)c1ccc(-c2cnc(N)c(F)c2)c(-c2nn[nH]n2)c1S(N)(=O)=O [Example 478, (R)-N1-(3-amino-2-hydroxypropyl)-4-(6-amino-5-fluoropyridin-3-yl)-3-(2H-tetrazol-5-yl)benzene-1,2-disulfonamide] | 1.563 µM | 1.563 µM | 3.125 µM | 10.04 | 0.7813 | 9.80 | 9.17 | 1.00 | 0.7813 | – | – | – | – | – | – | – | – | – | – |
| NCc1nc2cc(-c3ccc(S(=O)(=O)NC[C@@H](O)CN)c(S(N)(=O)=O)c3-c3nn[nH]n3)ccc2[nH]1 [Example 465] | 0.7813 µM | 1.563 µM | 1.563 µM | – | 0.7813 | 9.65 | 8.94 | 1.00 | 0.7813 | 9.88 | – | – | – | – | – | – | – | – | – |
| Nc1nc2c(-c3ccc(S(=O)(=O)NC4CNC4)c(S(N)(=O)=O)c3-c3nn[nH]n3)cccc2[nH]1 [Example 252, 4-(2-amino-1H-benzo[d]imidazol-4-yl)-N1-(azetidin-3-yl)-3-(2H-tetrazol-5-yl)benzene-1,2-disulfonamide] | 0.4271 µM | 0.7383 µM | 0.8359 µM | – | – | 10.37 | 9.18 | – | – | 9.83 | 0.418 µM | 0.68 | 0.6133 µM | – | – | – | – | – | – |
| Nc1nc2c(-c3ccc(S(=O)(=O)NCC4COCCN4)c(S(N)(=O)=O)c3-c3nn[nH]n3)cccc2[nH]1 (stereo not drawn) [Example 206, 4-(2-amino-1H-benzo[d]imidazol-4-yl)-N1-(morpholin-3-ylmethyl)-3-(2H-tetrazol-5-yl)benzene-1,2-disulfonamide] | – | – | – | 9.68 | – | 10.14 | 9.30 | – | – | – | 3.125 µM | 2.00 | 1.563 µM | 0.3906 µM | 1.563 µM | 1.563 µM | – | – | – |
| CC1(NS(=O)(=O)c2ccc(-c3ccc(N)nc3)c(-c3nn[nH]n3)c2S(N)(=O)=O)CNC1.Cl.Cl [Example 497, 4-(6-aminopyridin-3-yl)-1-N-(3-methylazetidin-3-yl)-3-(2H-1,2,3,4-tetrazol-5-yl)benzene-1,2-disulfonamide hydrogen] | – | – | – | – | 0.7813 | 9.88 | 9.19 | 1.00 | 0.7813 | 9.66 | – | – | – | – | – | – | 0.3906 µM | 0.7813 µM | 1.563 µM |
| NCCNS(=O)(=O)c1ccc(-c2cccc3[nH]c([C@@H]4C[C@@H](O)CN4)nc23)c(-c2nn[nH]n2)c1S(N)(=O)=O [Example 444, N1-(2-aminoethyl)-4-(2-((2S,4R)-4-hydroxypyrrolidin-2-yl)-1H-benzo[d]imidazol-4-yl)-3-(2H-tetrazol-5-yl)benzene-1,2-disulfonamide] | 1.563 µM | 3.125 µM | 3.125 µM | 9.63 | 1.563 | 9.63 | 8.80 | 1.00 | 1.563 | – | – | – | – | – | – | – | – | – | – |
| CC(C)(CN)NS(=O)(=O)c1ccc(-c2cccnc2N)c(-c2nn[nH]n2)c1S(N)(=O)=O [Example 211, N1-(1-amino-2-methylpropan-2-yl)-4-(2-aminopyridin-3-yl)-3-(2H-tetrazol-5-yl)benzene-1,2-disulfonamide] | – | – | – | – | – | 9.81 | 8.65 | – | – | 9.74 | 12.5 µM | 4.00 | 3.125 µM | 1.563 µM | 3.125 µM | 6.25 µM | – | – | – |
| NCCNS(=O)(=O)c1ccc(C2CCC[C@H](N)C2)c(-c2nn[nH]n2)c1S(N)(=O)=O (stereo partly drawn) [Example 342, 4-((3S)-3-aminocyclohexyl)-N1-(2-aminoethyl)-3-(2H-tetrazol-5-yl)benzene-1,2-disulfonamide] | 1.563 µM | 3.125 µM | 1.563 µM | 8.27 | – | 7.49 | 7.05 | – | – | – | 25 µM | 4.00 | 6.25 µM | – | – | – | – | – | – |
| Nc1ccc(-c2ccc(S(=O)(=O)N[C@H]3CN[C@H](CO)C3)c(S(N)(=O)=O)c2-c2nn[nH]n2)cn1 [Example 411] | 0.7813 µM | 1.563 µM | 3.125 µM | – | 1.563 | 9.93 | 9.39 | 1.00 | 1.563 | 9.75 | – | – | – | – | – | – | – | – | – |
| NC(=O)c1nc2c(-c3ccc(S(=O)(=O)N[C@@H]4CCNC4)c(S(N)(=O)=O)c3-c3nn[nH]n3)cccc2[nH]1 [Example 271, (R)-4-(4-(N-(pyrrolidin-3-yl)sulfamoyl)-3-sulfamoyl-2-(2H-tetrazol-5-yl)phenyl)-1H-benzo[d]imidazole-2-carboxamide] | 1.563 µM | 0.7813 µM | 3.125 µM | – | – | 10.71 | 9.57 | – | – | 10.00 | 0.7813 µM | 0.50 | 1.563 µM | – | – | – | – | – | – |
